The source of these data is patent US11291206B2, “Herbicidal composition comprising cinmethylin and specific pigment synthesis inhibitors” (BASF Agro B.V., priority 2015, dated 2022).

Assay type in all cases: in vivo
In test [1] the test system is Anthemis arvensis. As to the kind of experiment: Greenhouse post-emergence herbicidal activity. The following applies: postemergence, ANTAR, 20 DAT. Here is the method:
(§1) The test plants have been seeded, separately for each species, in plastic containers in sandy loamy soil containing 5% of organic matter.
(§2) For the post emergence treatment, the plants were first grown to the 2 leaf station (GS 12) and applied at GS 12-19 depending on the species. Here, the herbicidal compositions were suspended or emulsified in water as distribution medium and sprayed using finely distributing nozzels.
(§3) The plants have been cultivated due to their individual requirements at 10-25° C. and 20-35° C. The plants were irrigated due to their necessity.
(§4) The racemic mixture (±)-2-exo-(2-M ethylbenzyloxy)-1-methyl-4-isopropyl-7-oxabicyclo[2.2.1]heptane was used as herbicide A and formulated as emulsifiable concentrates with an active ingredient concentration of 50g/I, 100 g/I or 750 g/I respectively.
(§5) Clomazone (herbicide B.3) was used as wettable powder (WP) formulation having an active ingredient concentration of 50%.
(§6) In the following experiments, the herbicidal activity for the individual herbicidal compositions (solo and mixture applications) was assessed 20 days after treatment (DAT).
(§7) The evaluation for the damage on undesired weeds caused by the chemical compositions was carried out using a scale from 0 to 100%, compared to the untreated control plants. Here, 0 means no damage and 100 means complete destruction of the plants.
(§8) E=X+Y−(X·Y/100) where • X=effect in percent using herbicide A at an application rate a; • Y=effect in percent using herbicide B at application rate b; • E=expected effect (in %) of herbicide A+herbicide B at application rates a+b.
(§9) The value E corresponds to the effect (plant damage or injury) which is to be expected if the activity of the individual compounds is additive.

The subject of test [2] is Lolium multiflorum. The test can be described thus: Greenhouse post-emergence herbicidal activity. The following applies: postemergence, LOLMU, 20 DAT. On the procedure: as §1, §2, §3, §4, §5, §6, §7, §8, §9
The test system of a further test is Geranium dissectum. As to the kind of experiment: Greenhouse pre-emergence herbicidal activity. The settings on record: preemergence, GERDI, 20 DAT. On the procedure: as §1
(§10) The containers were irrigated gently to promote germination and growth and subsequently covered with transparent plastic hoods until the plants had rooted.
as §3, §4, §5, §6, §7, §8, §9

Another test concerns Polygonum convolvulus. As to the kind of experiment: Greenhouse pre-emergence herbicidal activity. The settings on record: preemergence, POLCO, 20 DAT. Here is the method:
as §1, §10, §3, §4, §5, §6, §7, §8, §9

In the next test the test system is Papaver rhoeas. The test can be described thus: Greenhouse pre-emergence herbicidal activity. The following applies: preemergence, PAPRH, 20 DAT. On the procedure:
as §1, §10, §3, §4, §5, §6, §7, §8, §9

The test system of the next test is Brassica napus. As to the kind of experiment: Greenhouse pre-emergence herbicidal activity. The settings on record: preemergence, BRSNW, 20 DAT. Here is the method:
as §1, §10, §3, §4, §5, §6, §7, §8, §9

The subject of test [3] is Anthemis arvensis. As to the kind of experiment: Greenhouse pre-emergence herbicidal activity. The following applies: preemergence, ANTAR, 20 DAT. Here is the method: as §1, §10, §3, §4, §5, §6, §7, §8, §9
Test [4] has as its system Lolium multiflorum. As to the kind of experiment: Greenhouse pre-emergence herbicidal activity. The following applies: preemergence, LOLMU, 20 DAT. On the procedure: as §1, §10, §3, §4, §5, §6, §7, §8, §9
Setting [5] is: solo application herbicide A 125 g ai/ha.
The mark [6] stands for this setting: solo application herbicide A 250 g ai/ha.
Setting [7] is: solo application herbicide A 62.5 g ai/ha.
Where [8] appears, read: solo application clomazone 750 g ai/ha.
The mark [9] stands for this setting: solo application clomazone 125 g ai/ha.
[10] abbreviates: solo application clomazone 187.5 g ai/ha.
Where [11] appears, read: solo application clomazone 250 g ai/ha.
Where [12] appears, read: solo application clomazone 500 g ai/ha.

For the compound `Cc1ccccc1CO[C@@H]1C[C@@]2(C(C)C)CC[C@]1(C)O2` (racemic) [herbicide A, (±)-2-exo-(2-Methylbenzyloxy)-1-methyl-4-isopropyl-7-oxabicyclo[2.2.1]heptane], the herbicidal activity in the test with Anthemis arvensis [1] (setting [5]) was 0%; in the test with Anthemis arvensis [1] (setting [6]) it was 40%; in the test with Lolium multiflorum [2] (setting [7]) it was 35%; in the test on Geranium dissectum (setting [7]), 70%; in the test on Geranium dissectum (setting [5]) it was 70%; in the test on Geranium dissectum (setting [6]) it was 70%. Besides, the herbicidal activity stood at 0% in the test on Polygonum convolvulus (setting [7]); 65% with Papaver rhoeas (setting [6]); 0% with Brassica napus (setting [7]); 15% in the test on Brassica napus (setting [6]); 40% in the test on Brassica napus (solo application herbicide A 500 g ai/ha); 0% in the test with Anthemis arvensis [3] (setting [7]). The herbicidal activity in the test on Anthemis arvensis [3] (setting [5]) is recorded as 20%; in the test on Lolium multiflorum [4] (setting [7]), 85%.
In the case of `CC1(C)CON(Cc2ccccc2Cl)C1=O` [clomazone, 2-(2-chlorobenzyl)-4,4-dimethyl-1,2-oxazolidin-3-one], the herbicidal activity in the test with Anthemis arvensis [1] (solo application clomazone 375 g ai/ha) was 75%; in the test with Anthemis arvensis [1] (setting [8]), 90%; in the test on Lolium multiflorum [2] (setting [9]), 80%; with Lolium multiflorum [2] (setting [10]), 90%; in the test on Geranium dissectum (setting [9]), 30%; with Geranium dissectum (setting [11]), 40%. The herbicidal activity in the test on Geranium dissectum (setting [8]) stood at 80%; in the test on Polygonum convolvulus (setting [9]), 75%; in the test on Papaver rhoeas (setting [12]), 90%; in the test with Brassica napus (setting [9]) it was 40%; with Brassica napus (setting [10]), 45%; in the test with Brassica napus (setting [12]), 75%. Moreover, the herbicidal activity in the test with Brassica napus (solo application clomazone 1000 g ai/ha) amounted to 90%; in the test on Anthemis arvensis [3] (setting [9]), 60%; in the test on Anthemis arvensis [3] (setting [11]) it was 85%; in the test with Lolium multiflorum [4] (setting [9]) it was 85%.
